Results: patent publication US10760052B2, “Method of inhibiting tau phosphorylation” (priority 2012, dated 2020)
Like-named read-outs stand apart in the source and are kept apart here.

Molecular target: T1, mu opiate receptor (MOR) (Rattus norvegicus, UniProt P33535)
T1 construct: from tissue; host or cells: striatum (membrane preparation)
Format: biochemical
Conditions: for Concentration of FLNA-Binding Compound as Agonist 0.1 μM / Concentration of FLNA-Binding Compound as Agonist 1 μM / Concentration of FLNA-Binding Compound as Agonist 1 μM + BFNA: [35S]GTPγS binding to Gαo in striatal membranes; for Concentration of FLNA-Binding Compound as Agonist 0.1 μM: compound 0.1 μM; for Concentration of FLNA-Binding Compound as Agonist 1 μM: compound 1 μM; for Concentration of FLNA-Binding Compound as Agonist 1 μM + BFNA: compound 1 μM plus 1 μM β-funaltrexamine (MOR antagonist)

[1] = 0.1 μM compound, striatal membranes, Series C-2
[2] = 1 μM compound + 1 μM β-FNA (selective MOR antagonist), Series C-2
[3] = 1 μM compound, striatal membranes, Series C-2

T1 sequence (P33535 whole entry): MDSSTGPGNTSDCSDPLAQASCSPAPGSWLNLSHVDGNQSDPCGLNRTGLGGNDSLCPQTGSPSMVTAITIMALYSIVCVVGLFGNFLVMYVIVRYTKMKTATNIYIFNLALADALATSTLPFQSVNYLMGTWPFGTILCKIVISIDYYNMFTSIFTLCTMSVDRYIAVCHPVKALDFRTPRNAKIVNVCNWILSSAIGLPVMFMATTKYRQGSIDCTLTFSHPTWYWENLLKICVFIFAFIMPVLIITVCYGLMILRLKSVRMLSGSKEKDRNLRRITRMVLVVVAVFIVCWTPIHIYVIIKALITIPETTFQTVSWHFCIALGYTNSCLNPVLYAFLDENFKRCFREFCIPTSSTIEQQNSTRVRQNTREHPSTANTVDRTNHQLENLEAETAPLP

| Compound | % DAMGO (0.1 μM) [%] | % DAMGO (1 μM) [%] | % DAMGO + BFNA [%] | Concentration of FLNA-Binding Compound as Agonist 0.1 μM [%] | Concentration of FLNA-Binding Compound as Agonist 1 μM [%] | Concentration of FLNA-Binding Compound as Agonist 1 μM + BFNA [%] | [35S]GTPγS binding, FLNA-Binding Compound as Agonist at 0.1 μM [%] | [35S]GTPγS binding, FLNA-Binding Compound as Agonist at 1 μM [%] | [35S]GTPγS binding, FLNA-Binding Compound as Agonist at 1 μM + BFNA [%] | [35S]GTPγS binding, FLNA-Binding Compound as Agonist at 0.1 μM [1] [%] | [35S]GTPγS binding, FLNA-Binding Compound as Agonist at 1 μM + BFNA [2] [%] | [35S]GTPγS binding, FLNA-Binding Compound as Agonist at 1 μM [3] [%] |
| --- | --- | --- | --- | --- | --- | --- | --- | --- | --- | --- | --- | --- |
| O=S(=O)(c1ccc(Cl)cc1)N1CCC2(CC1)OCCN2S(=O)(=O)c1ccc(Cl)cc1 [Compound C0067] | 82.9 | 81.5 | 97.1 | 142.7 | 179.0 | 33.5 |  |  |  |  |  |  |
| O=S(=O)(c1ccc(Br)cc1C(F)(F)F)N1CCC2(CC1)OCCN2S(=O)(=O)c1ccc(Br)cc1C(F)(F)F [Compound C0068] | 53.4 | 83.8 | 307.8 | 107.2 | 263.1 | 165.9 |  |  |  |  |  |  |
| O=S(=O)(c1ccc(Br)cc1Br)N1CCC2(CC1)OCCN2S(=O)(=O)c1ccc(Br)cc1Br [Compound C0070] | 96.2 | 95.9 | 331.0 | 165.6 | 210.8 | 114.2 |  |  |  |  |  |  |
| O=S(=O)(c1ccc(C(F)(F)F)cc1Br)N1CCC2(CC1)OCCN2S(=O)(=O)c1ccc(C(F)(F)F)cc1Br [Compound C0071] | 160.5 | 161.7 | 513.3 | 276.3 | 355.3 | 177.1 |  |  |  |  |  |  |
| O=S(=O)(c1ccc(F)c(F)c1)N1CCC2(CC1)OCCN2S(=O)(=O)c1ccc(F)c(F)c1 [Compound C0072] | 100.3 | 117.9 | 194.5 | 172.7 | 259.1 | 67.1 |  |  |  |  |  |  |
| O=S(=O)(c1ccc(Br)c(C(F)(F)F)c1)N1CCC2(CC1)OCCN2S(=O)(=O)c1ccc(Br)c(C(F)(F)F)c1 [Compound C0077] | 109.5 | 104.9 | 621.4 | 192.7 | 265.4 | 136.7 |  |  |  |  |  |  |
| O=S(=O)(c1ccc(Br)cc1F)N1CCC2(CC1)OCCN2S(=O)(=O)c1ccc(Br)cc1F [Compound C0078] | 82.4 | 106.4 | 359.4 | 138.1 | 236.6 | 170.7 |  |  |  |  |  |  |
| CC(=O)c1ccc(S(=O)(=O)N2CCC3(CC2)OCC(CCCCN(C)C)N3S(=O)(=O)c2ccc(C(C)=O)cc2)cc1 (stereo not drawn) [Compound C0080M] | 112.1 | 92.4 | 351.8 | 187.9 | 205.4 | 167.1 |  |  |  |  |  |  |
| CC(=O)c1ccc(S(=O)(=O)N2CCC3(CC2)NCC(=O)N3Cc2ccccc2)cc1 [Compound C0082M] | 113.7 | 107.8 | 181.1 | 228.1 | 338.4 | 97.6 |  |  |  |  |  |  |
| CC(=O)c1ccc(S(=O)(=O)N2CCC3(CC2)NC(=O)C(Cc2cnc[nH]2)N3S(=O)(=O)c2ccc(C(C)=O)cc2)cc1 (stereo not drawn) [Compound C0084M] | 97.3 | 114.9 | 280.4 | 163.1 | 255.5 | 133.2 |  |  |  |  |  |  |
| CC(=O)c1ccc(S(=O)(=O)N2CCC3(CC2)NC(=O)CN3Cc2ccccc2)cc1 [Compound C0085M] | 105.5 | 78.4 | 112.6 | 211.6 | 246.2 | 43.7 |  |  |  |  |  |  |
| CC(=O)c1ccc(S(=O)(=O)N2CC(=O)NC23CCNCC3)cc1 [Compound C0086M] | 117.5 | 104.9 | 692.3 |  |  |  | 206.8 | 265.3 | 152.3 |  |  |  |
| COc1ccc(S(=O)(=O)N2CCOC23CCN(C)CC3)cc1 [Compound C0088M] | 160.5 | 161.7 | 513.3 |  |  |  |  |  |  | 276.3 | 177.1 | 355.3 |
| CCN1CCC2(CC1)OCCN2S(=O)(=O)c1ccc(OC)cc1 [Compound C0089M] | 136.3 | 134.4 | 237.4 |  |  |  |  |  |  | 234.5 | 81.9 | 295.3 |
| COc1ccc(S(=O)(=O)N2CCOC23CCN(CC2CC2)CC3)cc1 [Compound C0090M] | 137.7 | 155.2 | 118.8 |  |  |  | 237.0 | 341.0 | 41.0 |  |  |  |
| C=CCN1CCC2(CC1)OCCN2S(=O)(=O)c1ccc(OC)cc1 [Compound C0091M] | 118.1 | 108.5 | 367.3 |  |  |  |  |  |  | 207.9 | 80.8 | 274.4 |
| CC(=O)c1ccc(S(=O)(=O)N2CCOC23CCN(C)CC3)cc1 [Compound C0093M] | 81.3 | 96.4 | 127.5 |  |  |  |  |  |  | 140.0 | 44.0 | 211.8 |
| CCN1CCC2(CC1)OCCN2S(=O)(=O)c1ccc(C(C)=O)cc1 [Compound C0094M] | 100.2 | 119.9 | 334.2 |  |  |  |  |  |  | 172.5 | 115.3 | 263.5 |
| CC(=O)c1ccc(S(=O)(=O)N2CCOC23CCN(CC2CC2)CC3)cc1 [Compound C0095M] | 107.4 | 88.8 | 489.5 |  |  |  |  |  |  | 189.1 | 107.7 | 224.6 |
| C=CCN1CCC2(CC1)OCCN2S(=O)(=O)c1ccc(C(C)=O)cc1 [Compound C0096M] | 105.9 | 130.0 | 577.7 |  |  |  |  |  |  | 186.4 | 127.1 | 328.9 |
| CCOC(=O)CN1CCC2(CC1)OCCN2S(=O)(=O)c1ccc(C(C)=O)cc1 [Compound C0099M] | 93.8 | 88.0 | 241.5 |  |  |  |  |  |  | 157.2 | 114.7 | 195.7 |
| CC(=O)c1ccc(S(=O)(=O)N2CCOC23CCN(CC(=O)O)CC3)cc1 [Compound C0100M] | 103.6 | 110.6 | 411.8 |  |  |  |  |  |  | 173.6 | 195.6 | 245.9 |
| CCCCN1CCC2(CC1)OCCN2S(=O)(=O)c1ccc(C(C)=O)cc1 [Compound C0101M] | 82.5 | 123.4 | 368.0 |  |  |  |  |  |  | 138.2 | 174.8 | 274.3 |
| CCCCN1CCC2(CC1)OCCN2S(=O)(=O)c1ccc(OC)cc1 [Compound C0102M] | 78.6 | 122.4 | 316.6 |  |  |  |  |  |  | 131.8 | 150.4 | 272.0 |
| CN1CCC2(CC1)NC(=O)CN2Cc1ccccc1 [Compound C0104M] | 99.5 | 96.3 | 296.5 |  |  |  |  |  |  | 188.2 | 143.8 | 238.9 |
| CN1CCC2(CC1)NCC(=O)N2Cc1ccccc1 [Compound C0105M] | 104.7 | 88.8 | 150.7 |  |  |  |  |  |  | 198.1 | 73.1 | 220.3 |
| CN1CCC2(CC1)OCCN2S(=O)(=O)c1ccc(S(C)(=O)=O)cc1 [Compound C0106M] | 102.5 | 108.3 | 246.7 |  |  |  |  |  |  | 171.8 | 117.2 | 240.7 |
